Results reported in article PMC9737349, “Discovery of 5-Methylthiazole-Thiazolidinone Conjugates as Potential Anti-Inflammatory Agents: Molecular Target Identification and In Silico Studies” (Molecules, 2022).

Experiments:
[1] = system: carrageenan-induced mouse paw edema; assay: Carrageenan-induced mouse paw oedema; type: in vivo; conditions: mice, i.p. 0.15 mmol/kg 5 min before carrageenan, paw weight increase after 3.5 h; for inhibition in vivo at 150 µmol/kg: Mus musculus, ip
Experimental: For the study of possible anti-inflammatory action, the swelling caused in the sole of the right hind limb by intradermal administration of carrageenan was used as a model of inflammation. Carrageenan-induced edema is a non-specific inflammation that results from a number of different transmitters and resembles human acute inflammation.
The animals were weighed and divided into control, standard and test groups. Each group contained 10 mice. […] An aqueous solution of carrageenan 0.1 mL, 1% w/v) was injected subcutaneously to the sub-plantar region of the right hind paw, with the left paw as control. The tested compounds (suspended in water with a few drops of Tween 80) were given i.p. (0.15 mmol/kg) 5 min before the carrageenan administration. After 3.5 h, the hind paws were excised and were weighed separately. The produced oedema was estimated as a paw weight increase.

ovine COX-1 = target: T1, ovine COX-1 (Ovis aries, UniProt P05979); assay: Inhibition of COX-1 activity (Cayman COX Inhibitor Screening Assay kit); type: biochemical
T1 construct: purchased Cayman Chemical Co., Ann Arbor, MI
T1 sequence (P05979 25-600): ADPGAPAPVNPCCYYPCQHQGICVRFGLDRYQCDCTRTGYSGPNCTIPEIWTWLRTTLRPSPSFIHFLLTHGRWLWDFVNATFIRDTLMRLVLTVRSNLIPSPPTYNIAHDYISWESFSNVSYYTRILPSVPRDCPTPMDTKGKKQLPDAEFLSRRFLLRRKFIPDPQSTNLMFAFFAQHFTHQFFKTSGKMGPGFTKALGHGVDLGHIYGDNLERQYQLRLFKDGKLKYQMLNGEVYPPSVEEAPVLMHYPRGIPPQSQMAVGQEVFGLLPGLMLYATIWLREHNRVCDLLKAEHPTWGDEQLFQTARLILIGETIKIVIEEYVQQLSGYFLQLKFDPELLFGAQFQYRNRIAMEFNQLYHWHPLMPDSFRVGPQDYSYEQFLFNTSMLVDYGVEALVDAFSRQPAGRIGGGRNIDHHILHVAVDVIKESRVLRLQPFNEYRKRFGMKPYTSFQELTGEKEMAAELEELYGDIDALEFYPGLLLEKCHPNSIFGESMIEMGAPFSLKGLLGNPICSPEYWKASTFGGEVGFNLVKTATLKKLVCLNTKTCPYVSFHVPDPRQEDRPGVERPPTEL
Experimental: (§1) The effect of compounds on COX-1 and COX-2 inhibition was measured using a commercial kit provided by Cayman (Cayman Chemical Co., Ann Arbor, MI), applying the instructions of the manufacturer. The kit uses ovine COX-1 and human recombinant COX-2 enzymes. […] The assay measures PGF2a produced by SnCl2 reduction of COX-derived PGH2.

human recombinant COX-2 = target: T2, human recombinant COX-2 (Homo sapiens, UniProt P35354); assay: Inhibition of COX-2 activity (Cayman COX Inhibitor Screening Assay kit); type: biochemical; conditions: read-out: Inhibition, COX-2, Inhibition (%) 200 μM
T2 construct: purchased Cayman Chemical Co., Ann Arbor, MI
T2 sequence (P35354 18-604): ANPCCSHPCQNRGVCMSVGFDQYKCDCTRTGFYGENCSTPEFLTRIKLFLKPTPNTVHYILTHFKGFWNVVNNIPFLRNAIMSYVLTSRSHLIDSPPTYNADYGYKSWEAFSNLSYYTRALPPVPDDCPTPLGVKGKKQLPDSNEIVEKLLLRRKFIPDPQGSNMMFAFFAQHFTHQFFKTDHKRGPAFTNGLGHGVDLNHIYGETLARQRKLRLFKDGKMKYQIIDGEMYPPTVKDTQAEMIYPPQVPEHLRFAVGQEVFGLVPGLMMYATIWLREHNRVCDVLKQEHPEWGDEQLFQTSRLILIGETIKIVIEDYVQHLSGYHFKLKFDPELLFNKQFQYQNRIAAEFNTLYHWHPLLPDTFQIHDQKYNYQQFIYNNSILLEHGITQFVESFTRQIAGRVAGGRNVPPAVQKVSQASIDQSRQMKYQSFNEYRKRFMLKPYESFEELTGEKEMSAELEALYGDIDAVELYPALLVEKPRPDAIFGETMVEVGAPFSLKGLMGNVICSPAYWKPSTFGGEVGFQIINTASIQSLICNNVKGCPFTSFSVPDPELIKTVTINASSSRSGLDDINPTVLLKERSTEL
Experimental: as §1

soybean LOX = target: T3, soybean LOX (Glycine max, UniProt P08170); assay: Inhibition of LOX activity; type: biochemical
T3 construct: purchased Sigma (St. Louis, MO, USA)
T3 sequence (P08170 1-839): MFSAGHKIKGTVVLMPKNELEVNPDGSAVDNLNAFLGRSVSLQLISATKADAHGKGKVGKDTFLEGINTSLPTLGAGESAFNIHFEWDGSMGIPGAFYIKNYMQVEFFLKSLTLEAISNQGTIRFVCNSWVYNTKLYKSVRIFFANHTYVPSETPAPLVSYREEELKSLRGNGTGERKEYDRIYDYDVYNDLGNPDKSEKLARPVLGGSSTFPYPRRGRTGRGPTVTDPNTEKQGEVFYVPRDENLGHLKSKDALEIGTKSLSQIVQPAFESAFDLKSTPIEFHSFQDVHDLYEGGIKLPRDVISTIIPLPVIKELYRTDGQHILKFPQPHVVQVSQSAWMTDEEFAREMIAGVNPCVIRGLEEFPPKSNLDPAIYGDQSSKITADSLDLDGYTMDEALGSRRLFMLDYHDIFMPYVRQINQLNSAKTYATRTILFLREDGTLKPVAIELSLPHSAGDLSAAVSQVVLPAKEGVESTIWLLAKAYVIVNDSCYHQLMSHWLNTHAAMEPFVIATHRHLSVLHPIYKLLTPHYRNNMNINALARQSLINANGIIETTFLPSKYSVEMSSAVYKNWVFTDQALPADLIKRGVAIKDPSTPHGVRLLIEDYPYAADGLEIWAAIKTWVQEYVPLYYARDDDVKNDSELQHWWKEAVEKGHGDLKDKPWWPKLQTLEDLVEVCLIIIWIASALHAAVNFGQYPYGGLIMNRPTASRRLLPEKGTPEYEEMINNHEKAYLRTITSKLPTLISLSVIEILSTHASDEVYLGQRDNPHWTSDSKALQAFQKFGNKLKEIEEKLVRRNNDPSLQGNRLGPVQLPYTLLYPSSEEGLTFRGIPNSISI
Experimental: The reaction mixture contained (final concentration 300 μM) the test compounds, dissolved in absolute ethanol (10–300 μM), or the solvent (control), soybean LOX, dissolved in 0.9% NaCl solution (250 u/mL) and sodium linoleate (100 μM), in Tris-HCl buffer, pH 9.0. The reaction was followed for 7 min at 28 °C, recording the absorbance (234 nm) of a conjugated diene structure, due to the formation of 13-hydroperoxy-linoleic acid. […] For the estimation of the type of inhibition, the above experiments were repeated, using 1 mM sodium linoleate, which is higher than the saturating substrate concentration.

SMILES: Cc1cnc(N=C2NC(=O)C(=Cc3ccc(Cl)cc3Cl)S2)s1 [Compound 14]
- inhibition in vivo at 150 µmol/kg [1]: 35.2 ± 2.1%

SMILES: Cc1cnc(N=C2NC(=O)C(=Cc3ccccc3)S2)s1 [Compound 1]
- inhibition in vivo at 150 µmol/kg [1]: 51.6 ± 1.5%

SMILES: Cc1cnc(N=C2NC(=O)C(=Cc3ccccc3O)S2)s1 [Compound 2]
- inhibition in vivo at 150 µmol/kg [1]: 43.1 ± 1.9%

SMILES: Cc1cnc(N=C2NC(=O)C(=Cc3ccc(Cl)cc3)S2)s1 [Compound 12]
- inhibition in vivo at 150 µmol/kg [1]: 55.6%
- Oedema Inhibition (%) [1]: 55.6 ± 1.5 %

SMILES: Cc1cnc(N=C2NC(=O)C(=Cc3cccc(Br)c3)S2)s1 [Compound 16]
- inhibition in vivo at 150 µmol/kg [1]: 57.6%
- Oedema Inhibition (%) [1]: 57.6 ± 1.4 %
- IC50 (ovine COX-1): 1080 ± 300 nM
- inhibition at 200 µM (ovine COX-1): 100%
- inhibition at 200 µM (human recombinant COX-2): 0%
- inhibition at 100 µM (soybean LOX): 46.7 ± 1.5%

SMILES: Cc1cnc(N=C2NC(=O)C(=Cc3cccc([N+](=O)[O-])c3)S2)s1 [Compound 7]
- inhibition in vivo at 150 µmol/kg [1]: 54.5 ± 1.4%

SMILES: Cc1cnc(N=C2NC(=O)C(=Cc3ccc(Br)cc3)S2)s1 [Compound 17]
- inhibition in vivo at 150 µmol/kg [1]: 41.4 ± 1.9%

SMILES: Cc1cnc(N=C2NC(=O)C(=Cc3c(Cl)cccc3Cl)S2)s1 [Compound 15]
- inhibition in vivo at 150 µmol/kg [1]: 39.4 ± 2.3%

SMILES: Cc1cnc(N=C2NC(=O)C(=Cc3ccc([N+](=O)[O-])cc3)S2)s1 [Compound 8]
- inhibition in vivo at 150 µmol/kg [1]: 55.4%
- Oedema Inhibition (%) [1]: 55.4 ± 1.5 %
- IC50 (ovine COX-1): 14400 ± 700 nM
- inhibition at 200 µM (ovine COX-1): 100%
- inhibition at 200 µM (human recombinant COX-2): 0%
- inhibition at 100 µM (soybean LOX): 7.88 ± 2.1%

SMILES: Cc1cnc(N=C2NC(=O)C(=Cc3cccc(F)c3)S2)s1 [Compound 9]
- inhibition in vivo at 150 µmol/kg [1]: 34.8 ± 2.1%

SMILES: COc1ccc2cc([C@H](C)C(=O)O)ccc2c1 [Naproxen, reference compound]
- inhibition at 200 µM (human recombinant COX-2): 17 ± 2.3%

SMILES: COc1ccc(OC)c(C=C2SC(=Nc3ncc(C)s3)NC2=O)c1 [Compound 5]
- inhibition in vivo at 150 µmol/kg [1]: 44.9 ± 1.7%

SMILES: Cc1cnc(N=C2NC(=O)C(=Cc3ccccc3[N+](=O)[O-])S2)s1 [Compound 6]
- inhibition in vivo at 150 µmol/kg [1]: 48.7 ± 1.8%

SMILES: Cc1cnc(N=C2NC(=O)C(=Cc3ccc(O)cc3)S2)s1 [Compound 3]
- inhibition in vivo at 150 µmol/kg [1]: 31.4%
- Oedema Inhibition (%) [1]: 31.4 ± 2.3 %

SMILES: COc1ccc(C=C2SC(=Nc3ncc(C)s3)NC2=O)cc1 [Compound 4]
- inhibition in vivo at 150 µmol/kg [1]: 48.3 ± 1.8%

SMILES: Cc1cnc(N=C2NC(=O)C(=Cc3ccccc3Cl)S2)s1 [Compound 11]
- inhibition in vivo at 150 µmol/kg [1]: 43 ± 1.7%

SMILES: Cc1cnc(N=C2NC(=O)C(=Cc3cccc(Cl)c3Cl)S2)s1 [Compound 13]
- inhibition in vivo at 150 µmol/kg [1]: 57.8%
- Oedema Inhibition (%) [1]: 57.8 ± 1.3 %
- IC50 (ovine COX-1): 1100 ± 300 nM
- inhibition at 200 µM (ovine COX-1): 100%
- inhibition at 200 µM (human recombinant COX-2): 0%
- inhibition at 100 µM (soybean LOX): 37.2 ± 1.8%

SMILES: Cc1cnc(N=C2NC(=O)C(=Cc3ccc(F)cc3)S2)s1 [Compound 10]
- inhibition in vivo at 150 µmol/kg [1]: 47.8 ± 1.6%
